Data published in US20100015169A1, “Tumor Antigens” (GREEN PEPTIDE CO., LTD., priority 2001, published 2010).
No end group written: not given here.

How the values were obtained:
Format in all cases: cell-based, human
[1] = test system: HLA-A24- prostate cancer cells (PC93); assay: 6-hour 51Cr release test of peptide-induced CTL against HLA-A24- prostate cancer cells (control); conditions: HLA-A24- prostate cancer cell
Description: (§1) The cytotoxic activity of CTL induced from the PBMC of an HLA-A24^+ prostate cancer patient by PSM624-632 (SEQ ID NO: 3) was examined in the ^51Cr release test using prostate cancer cells. First, PBMC from two patients with prostate cancer were cultured for 10 days and stimulated as in Example 1, and then further cultured for 10 days prior to use as effector cells. The cytotoxic activity of the effector cells against HLA-A24^+ target cells was measured by a standard 6-hour ^51Cr release test at an E/T ratio of 10:1 or 20:1, and the results obtained were expressed as the percentage of specific lysis. PC93-A24 cells resulting from the introduction and expression of the HLA-A24 gene in HLA-A24^− prostate cancer cells (PC93), methods known in the art, were used as target cells. In addition, the HLA-A24^− prostate cancer cells were used as controls.

[2] = test system: PC93-A24 cells (HLA-A24+ prostate cancer cell); assay: 6-hour 51Cr release test of peptide-induced CTL against HLA-A24+ prostate cancer cells; conditions: for Cytotoxic activity (% lysis): HLA-A24+ prostate cancer cell
Description: as §1
PBMC were cultured with 10 μg/ml each of PSA152-160 (SEQ ID NO: 1) or PSA248-257 (SEQ ID NO: 2) for 12 days, in the same manner as described above. Prostate cancer cells PC93-A24, which were created in Example 2 and used as target cells, were incubated with the aforementioned cultured PBMC, and then the amount of IFN-γ in the culture supernatant was measured (see Example 1). In addition, the aforementioned cultured cells were cultured for 14 additional days, and the cytotoxic activity against the PC93-A24 cells was measured by the ^51Cr release test (see Example 2).

[3] = test system: C1R-A2402 cells (HLA-A24+) pulsed with the same peptide; assay: IFN-γ production (ELISA) by peptide-stimulated PBMC in reaction to peptide-pulsed C1R-A2402 cells; induction of HLA-A24-restricted CTL; conditions: PBMC of prostate cancer patients; for cases in which the peptide enhanced the production of IFN-γ from PBMC: 10 μM peptide, 10 days, positive = significant, 50 pg/ml NET or more, Example 1
Description: The ability of the synthesized peptide to induce HLA-A24-restricted CTL from the PBMC that was prepared from a prostate cancer patient was examined. The PBMC were prepared from blood by a method of the art. 1×10^5 PBMC were cultured with 10 μM of each peptide in each well of a U-shaped 96-well micro-culture plate (produced by Nunc) to which 200 μl of culture medium (comprising 45% RPMI-1640 culture medium, 45% AIM-V® culture medium (Invitrogen), 100 U/ml of IL-2, 0.1 mM of MEM non-essential amino acid solution (Invitrogen), and 10% FCS) was added, at 37° C. under conditions of 5% CO2-95% air. At 4 days and 7 days of culturing, half of the culture medium was removed and replaced with a culture medium having the aforementioned composition containing the peptide equivalent to the peptide that was added in the beginning. At 10 days of culturing, the cells were collected, washed, and used as effector cells (E).
Meanwhile, each synthesized peptide (10 μM) was incubated with C1R-A2402 cells (HLA-A24^+) for 2 hours at 37° C. under conditions of 5% CO2-95% air, to make the peptide of interest bind to the HLA-A24 molecule expressed on the cell surface. C1R-A2402 cells thus pulsed with each of peptide were used as target cells (T).
The effector cells were equally divided, and mixed with a variety of target cells, followed by incubating for 18 hours at 37° C. under conditions of 5% CO2-95% air. After incubation, 100 μl of supernatant was collected, and the amount of IFN-γ produced was measured by ELISA. In so doing, the effector cells were paired with the target cells in such a way that the peptide used to induce the effector cells and the peptide pulsed to C1R-A2402 cells were the same. In addition, a peptide derived from the human immunodeficiency virus (hereinafter abbreviated as HIV) was used as a control, and the quantity of IFN-γ produced by CTL that recognized C1R-A2402 cells pulsed with the HIV peptide was taken as a background and subtracted from each measurement value. Each measurement value (NET) that has been calculated was statistically processed by the Student's t-test, and those with a P value of 0.05 or below were considered to be significant. In addition, a peptide that enhanced IFN-γ production with significance by 50 pg/ml NET or more was assessed as positive. […]

[4] = PBMC of prostate cancer patient 1, E/T = 10
[5] = PBMC of prostate cancer patient 1, E/T = 20
[6] = PBMC of prostate cancer patient 2, E/T = 10
[7] = PBMC of prostate cancer patient 2, E/T = 20
[8] = PBMC of a healthy subject, stimulated 12 days + 14 days, significant versus PC93 cells (FIG. 7B)
[9] = PBMC of prostate cancer patients, significant versus PC93 cells (FIG. 8B)

Substance: TYSVSFDSL [PSM624-632]
- Cytotoxic activity (% lysis) [1, 4]: 6.6 % lysis
- Cytotoxic activity (% lysis) [1, 5]: 6.1 % lysis
- Cytotoxic activity (% lysis) [1, 6]: 3.5 % lysis
- Cytotoxic activity (% lysis) [1, 7]: 5.6 % lysis
- Cytotoxic activity (% lysis) [2, 4]: 16.1 % lysis
- Cytotoxic activity (% lysis) [2, 5]: 19.9 % lysis
- Cytotoxic activity (% lysis) [2, 6]: 18.0 % lysis
- Cytotoxic activity (% lysis) [2, 7]: 17.8 % lysis

Substance: PSM448-456: peptide derived from PSMA that did not induce HLA-A24-restricted CTL (AYINADSSI)
- induction of HLA-A24-restricted CTL [3]: did not induce

Substance: PSM298-306: peptide derived from PSMA that did not induce HLA-A24-restricted CTL (GYYDAQKLL)
- induction of HLA-A24-restricted CTL [3]: did not induce

Substance: PSCA82-91: peptide derived from PSCA, residues 82-91, HLA-A24-binding motif (KNITCCDTDL; A peptide recognized by HLA-A24 restricted cytotoxic T lymphocytes, which is designed based on the amino acid sequence of PSCA)
- cases in which the peptide enhanced the production of IFN-γ from PBMC [3]: 2 out of 12

Substance: PSM704-712: peptide derived from PSMA that did not induce HLA-A24-restricted CTL (SFPGIYDAL)
- induction of HLA-A24-restricted CTL [3]: did not induce

Substance: PSM565-574: peptide derived from PSMA that did not induce HLA-A24-restricted CTL (FYDPMFKYHL)
- induction of HLA-A24-restricted CTL [3]: did not induce

Substance: PSM699-708: peptide derived from PSMA that did not induce HLA-A24-restricted CTL (KYAGESFPGI)
- induction of HLA-A24-restricted CTL [3]: did not induce

Substance: PSM178-186: peptide derived from PSMA that did not induce HLA-A24-restricted CTL (NYARTEDFF)
- induction of HLA-A24-restricted CTL [3]: did not induce

Substance: PSM624-633: peptide derived from PSMA that did not induce HLA-A24-restricted CTL (TYSVSFDSLF)
- induction of HLA-A24-restricted CTL [3]: did not induce

Substance: PSM74-83: peptide derived from PSMA that did not induce HLA-A24-restricted CTL (LYNFTQIPHL)
- induction of HLA-A24-restricted CTL [3]: did not induce

Substance: PSM227-235: peptide derived from PSMA that did not induce HLA-A24-restricted CTL (LYSDPADYF)
- induction of HLA-A24-restricted CTL [3]: did not induce

Substance: PSM584-593: peptide derived from PSMA that did not induce HLA-A24-restricted CTL (VFELANSIVL)
- induction of HLA-A24-restricted CTL [3]: did not induce

Substance: HYRKWIKDTI [PSA248-257]
- cytotoxic activity against PC93-A24 cells [2, 8]: exhibited cytotoxic activity
- cytotoxic activity against PC93-A24 cells [2, 9]: exhibited cytotoxic activity

Substance: PSM606-614: peptide derived from PSMA that did not induce HLA-A24-restricted CTL (KYADKIYSI)
- induction of HLA-A24-restricted CTL [3]: did not induce

Substance: PSCA76-84: peptide derived from PSCA, residues 76-84, HLA-A24-binding motif (DYYVGKKNI; A peptide recognized by HLA-A24 restricted cytotoxic T lymphocytes, which is designed based on the amino acid sequence of PSCA)
- cases in which the peptide enhanced the production of IFN-γ from PBMC [3]: 1 out of 12

Substance: CYASGWGSI [PSA152-160]
- cytotoxic activity against PC93-A24 cells [2, 8]: exhibited cytotoxic activity
- cytotoxic activity against PC93-A24 cells [2, 9]: exhibited cytotoxic activity

Substance: PSM520-528: peptide derived from PSMA that did not induce HLA-A24-restricted CTL (DFEVFFQRL)
- induction of HLA-A24-restricted CTL [3]: did not induce

Substance: PSCA27-36: peptide (PSCA residues 27-36) that did not induce HLA-A24-restricted CTL (LQVENCTQLG)
- induction of HLA-A24-restricted CTL [3]: did not induce
